Test results taken from patent US20250177376A1, “ALPHA 2 ADRENERGIC RECEPTOR BLOCKADE FOR THE TREATMENT OF C. DIFFICILE COLITIS” (University of Virginia Patent Foundation, priority 2022, published 2025).
Several values for one entry are separate records, joined by “and”; a condition that tells them apart may be missing. Equal values may be shown once. Entries after “also recorded” stand apart in the source; their conditions may differ. Where a name gives a salt, the structure may show the parent alone.

What was measured:
[1] = test system: C. difficile infection (CDI); assay: Mouse CDI model: survival, weight loss, clinical score; type: in vivo, mice; conditions: for clinical score versus ORA-PLUS vehicle: oral gavage days -1, 0, 1, scores at days 2-8
[2] = test system: eosinophils, neutrophils, monocytes; assay: Infiltrating colonic immune cells in CDI mice by flow cytometry; conditions: for monocyte levels / neutrophil levels: 6-OHDA vs PBS/saline, desipramine vs 6-OHDA alone
Method: To determine whether the sympathetic nervous system was necessary for a mounting of the inflammatory response, the infiltrating immune cell response in 6-OHDA-treated mice was measured by flow cytometry.

cytokines = assay: Luminex 32-plex cytokine levels in cecal tissue of CDI mice; conditions: IL-2, IL-4, IL-10, IL-12 (p40, p70), IL-15, MIP-1a, MIP-1b, LIX, VEGF, IL-5, GM-CSF, M-CSF, G-CSF, Eotaxin, IL-1b, IL-6, LIF, IP-10, KC, MCP-1, MIP2, MIG, IFNγ, IL-1a, IL-9, TNFa
Method: The levels of numerous cytokines were tested in PBS-treated mice and mice administered 6-OHDA.

C. difficile [3] = assay: C. difficile counts (CFU) from cecal contents; type: in vivo; conditions: cecal contents at 18 hours post-infection
Method: C. difficile counts were quantified from cecal contents at 18 hours post-infection. Cecal contents were resuspended by mass in anaerobic PBS. […] Colony counts were made manually.

toxin A/B = assay: Toxin A/B ELISA of cecal contents; type: in vivo, C. difficile; conditions: cecal contents 2 days post-infection
Method: ADRA2A inhibition with RX 821002 was also tested for any affects on toxin A/B levels in mice. Briefly, […] in cecal contents of mice sacrificed 2 days post-infection was determined by a Toxin A/B ELISA from TECHLAB, Inc. (Catalog No. TL5025). Prior to the ELISA, cecal contents were resuspended in PBS by mass. The Toxin A/B ELISA was performed according to the manufacturer's instructions. Mice were treated with RX 821002 and toxin A/B levels in CDI cecal content were determined.

C. difficile [4] = assay: C. difficile colonization in cecal contents by GDH ELISA; type: in vivo; conditions: cecal contents 2 days post-infection
Method: CDI colonization levels were also determined in PBS-treated mice (negative control) and mice treated with RX 821002. Briefly, C. difficile colonization in cecal contents of mice sacrificed 2 days post-infection was determined by a GDH ELISA from […], Inc. (Blacksburg, Virginia, United States of America; Catalog No. TL5025). Prior to the ELISA, cecal contents were resuspended in PBS by mass. The GDH ELISA was performed according to the manufacturer's instructions.

[5] = CDI mouse model, 6-OHDA 80 mg/kg i.p., propranolol, SR 59230A, RX 821002 10 mg/kg i.p., nepicastat oral gavage

## CNCCCN1c2ccccc2CCc2ccccc21 [desipramine, 3-(10,11-dihydro-5H-dibenzo[b,f]azepin-5-yl)-N-methylpropan-1-amine]
[1]; mouse, in vivo
  effect on survival / CDI-induced mortality versus negative control: prevented the protective effect of 6-OHDA on the incidence of mortality
[2]
  monocyte levels: statistically significant elevation
  neutrophil levels: negated this reduction

## NCc1c[nH]c(=S)n1[C@H]1CCc2c(F)cc(F)cc2C1 [nepicastat hydrochloride, 5-(Aminomethyl)-1-[(2S)-5,7-difluoro-1,2,3,4-tetrahydro-2-naphthalenyl]-1,3-dihydro-2H-imidazole-2-thione]
[1]; [5]
  effect on survival / CDI-induced mortality versus negative control: protected against CDI-induced mortality; also recorded: significantly improved survival
[1]; CDI mouse model, 6-OHDA 80 mg/kg i.p., propranolol, SR 59230A, RX 821002 10 mg/kg i.p., nepicastat oral gavage, listed as nepicastat
  effect on survival / CDI-induced mortality versus negative control: greatly reduced the incidence of mortality
[1]; CDI mouse model
  clinical score versus ORA-PLUS vehicle: statistically significantly lower
[1]; CDI mouse model, listed as Nepicastat
  clinical score versus ORA-PLUS vehicle: significantly better clinical scores

## COC(=O)[C@@H]1[C@H]2C[C@H]3c4[nH]c5ccccc5c4CCN3C[C@@H]2CC[C@@H]1O [yohimbine, methyl(1S,15R,18S,19R,20S)-18-hydroxy-1,3,11,12,14,15,16,17,18,19,20,21-dodecahydroyohimban-19-carboxylate]
[1]; [5]
  effect on survival / CDI-induced mortality versus negative control: statistically significant amelioration of CDI induced mortality

## NCCc1cc(O)c(O)cc1O [6-OHDA, 6-hydroxydopamine]
[1]; mouse, in vivo
  effect on survival / CDI-induced mortality versus negative control: strikingly ameliorated the incidence of mortality; also recorded: complete protection from death
  mice still alive through day 5 post-infection: 100%
  weight loss versus control: significantly (p<0.001) reduced; also recorded: strikingly ameliorated
[1]; mouse, in vivo, ip, 80 mg/kg
  mice still alive at day 7 post-infection: 90% and 80%
cytokines
  cytokine levels versus PBS-treated mice: statistically significantly reduced; also recorded: lower amounts of cytokines
cytokines; listed as 6-hydroxydopamine
  cytokine levels versus PBS-treated mice: block in pro-inflammatory cytokine response
[2]
  monocyte levels: not significantly reduced
  neutrophil levels: significantly reduced; also recorded: less representative of the colonic immune cells
[2]; vs PBS/Saline
  eosinophil levels: did not reach statistical significance

## CCc1ccccc1OC[C@@H](O)CN[C@H]1CCCc2ccccc21 [SR 59230A, (2S)-1-(2-ethylphenoxy)-3-[[(1S)-1,2,3,4-tetrahydronaphthalen-1-yl]amino]propan-2-ol]
[1]; [5]
  effect on survival / CDI-induced mortality versus negative control: increased the incidence of mortality; also recorded: exacerbated CDI disease progression
[1]; CDI mouse model, SR 59230A 10 mg/kg i.p.
  mice dead prior to day 3 post-infection: 100%

## COC1(C2=NCCN2)COc2ccccc2O1 (centres unmarked) [RX 821002, 2-(3-methoxy-2H-1,4-benzodioxin-3-yl)-4,5-dihydro-1H-imidazole]
[1]; [5]
  effect on survival / CDI-induced mortality versus negative control: statistically significant difference in percent survival; also recorded: drastically reduced; also recorded: ameliorated CDI induced mortality; also recorded: protection
C. difficile [3]
  C. difficile burden, colony-forming units (CFU)/mg/ml, versus PBS: no difference
Toxin A/B
  toxin A/B levels in CDI cecal content: reduced
C. difficile [4]
  CDI colonization (GDH ELISA) versus PBS: no effect
